From ChEMBL document CHEMBL1201862, “PubChem BioAssay data set” (2004)
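These data come from cells grown in 96-well plates and exposed to compound for 48 hours at five concentrations. The concentration for 50% growth inhibition is given as GI50.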 The source made the active and inactive calls. Cut-off read from the data, not from the text of the source: active = GI50 up to about 1.1 µM and inactive = higher.

How the values were obtained:
Experiment in all cases: DTP human tumour cell line panel, 48 h
[1] = tested on: CAKI-1
[2] = tested on: MCF7
[3] = tested on: SK-MEL-2
[4] = tested on: HL-60
[5] = tested on: OVCAR-4
[6] = tested on: SF-268
[7] = tested on: OVCAR-5
[8] = tested on: PC-3
[9] = tested on: DU-145
[10] = tested on: MDA-MB-435
[11] = tested on: IGROV-1
[12] = tested on: NCI-H460
[13] = tested on: SNB-75
[14] = tested on: T47D
[15] = tested on: EKVX
[16] = tested on: ACHN
[17] = tested on: KM12
[18] = tested on: HOP-62

O=c1ccc2nc3ccc(O)cc3oc-2c1
GI50 [1]: > 67.9 µM (inactive)
GI50 [2]: 5.07 µM (inactive)
GI50 [3]: 12.8 µM (inactive)
GI50 [4]: 10.5 µM (inactive)
GI50 [5]: > 68.1 µM (inactive)
GI50 [6]: 28.8 µM (inactive)
GI50 [7]: > 100 µM (inactive)
GI50 [8]: 4.69 µM (inactive)
GI50 [9]: 21 µM (inactive)
GI50 [10]: 1.83 µM (inactive)
GI50 [11]: 39.5 µM (inactive)
GI50 [12]: 12 µM (inactive)
GI50 [13]: 6.78 µM (inactive)
GI50 [14]: > 100 µM (inactive)
GI50 [15]: > 100 µM (inactive)
GI50 [16]: 8.11 µM (inactive)
GI50 [17]: 5.6 µM (inactive)
GI50 [18]: 17 µM (inactive)

CCOC(=O)C(Cl)(NC(=O)c1ccc(F)cc1)C(F)(F)F (centres undefined)
GI50 [1]: > 100 µM (inactive)
GI50 [2]: > 100 µM (inactive)
GI50 [3]: > 100 µM (inactive)
GI50 [4]: > 100 µM (inactive)
GI50 [5]: > 100 µM (inactive)
GI50 [6]: > 100 µM (inactive)
GI50 [7]: > 100 µM (inactive)
GI50 [8]: > 100 µM (inactive)
GI50 [9]: > 100 µM (inactive)
GI50 [10]: > 100 µM (inactive)
GI50 [11]: > 100 µM (inactive)
GI50 [12]: > 100 µM (inactive)
GI50 [13]: 77.3 µM (inactive)
GI50 [14]: > 100 µM (inactive)
GI50 [15]: > 100 µM (inactive)
GI50 [16]: > 100 µM (inactive)
GI50 [17]: 39.2 µM (inactive)
GI50 [18]: > 100 µM (inactive)

C/C=C1/CN2CCc3c([nH]c4ccccc34)[C@@H]2C[C@@H]1Cc1nccc2c1[nH]c1cc(O)ccc12
GI50 [1]: 1.73 µM (inactive)
GI50 [2]: 2.62 µM (inactive)
GI50 [3]: 2.05 µM (inactive)
GI50 [4]: 2.45 µM (inactive)
GI50 [5]: 1.57 µM (inactive)
GI50 [6]: 1.77 µM (inactive)
GI50 [7]: 2.93 µM (inactive)
GI50 [8]: 2.25 µM (inactive)
GI50 [9]: 2.07 µM (inactive)
GI50 [10]: 1.9 µM (inactive)
GI50 [12]: 16.5 µM (inactive)
GI50 [13]: 1.64 µM (inactive)
GI50 [14]: 2.14 µM (inactive)
GI50 [15]: 2.07 µM (inactive)
GI50 [16]: 2.29 µM (inactive)
GI50 [17]: 1.95 µM (inactive)
GI50 [18]: 1.98 µM (inactive)

COc1cc(C(C[N+](=O)[O-])SC(C)=O)ccc1OCc1ccccc1 (centres undefined)
GI50 [1]: 12 µM (inactive)
GI50 [2]: 2.38 µM (inactive)
GI50 [3]: 7.59 µM (inactive)
GI50 [4]: 0.261 µM (active)
GI50 [5]: 14.4 µM (inactive)
GI50 [6]: 6.14 µM (inactive)
GI50 [7]: 14.8 µM (inactive)
GI50 [8]: 4.47 µM (inactive)
GI50 [9]: 13.3 µM (inactive)
GI50 [10]: 3.08 µM (inactive)
GI50 [11]: 2.88 µM (inactive)
GI50 [12]: 8.95 µM (inactive)
GI50 [13]: 11.4 µM (inactive)
GI50 [14]: 20.5 µM (inactive)
GI50 [15]: 19.8 µM (inactive)
GI50 [16]: 9.55 µM (inactive)
GI50 [17]: 4.85 µM (inactive)
GI50 [18]: 7.18 µM (inactive)

COC(Cc1cc(C(O)(c2ccc(C(C)(C)C)cc2)c2cc(CC(OC)(c3cc(C(OC)(c4ccc(C(C)(C)C)cc4)c4ccc(C(C)(C)C)cc4)c(C)cc3C)c3cc(C(OC)(c4ccc(C(C)(C)C)cc4)c4ccc(C(C)(C)C)cc4)c(C)cc3C)c(C)cc2C)c(C)cc1C)(c1cc(C(OC)(c2ccc(C(C)(C)C)cc2)c2ccc(C(C)(C)C)cc2)c(C)cc1C)c1cc(C(OC)(c2ccc(C(C)(C)C)cc2)c2ccc(C(C)(C)C)cc2)c(C)cc1C
GI50 [1]: > 75 µM (inactive)
GI50 [2]: > 75 µM (inactive)
GI50 [3]: > 75 µM (inactive)
GI50 [4]: > 75 µM (inactive)
GI50 [5]: > 75 µM (inactive)
GI50 [6]: > 75 µM (inactive)
GI50 [7]: > 75 µM (inactive)
GI50 [8]: > 75 µM (inactive)
GI50 [9]: > 75 µM (inactive)
GI50 [10]: > 75 µM (inactive)
GI50 [11]: > 75 µM (inactive)
GI50 [12]: > 75 µM (inactive)
GI50 [13]: > 75 µM (inactive)
GI50 [14]: > 75 µM (inactive)
GI50 [15]: > 75 µM (inactive)
GI50 [18]: > 75 µM (inactive)

O=C(/C=C/c1ccc2c(c1)OCO2)CC(=O)C(=O)c1c[nH]c2ccccc12
GI50 [1]: 39.5 µM (inactive)
GI50 [2]: 32.2 µM (inactive)
GI50 [3]: > 100 µM (inactive)
GI50 [4]: 29.2 µM (inactive)
GI50 [6]: 37.2 µM (inactive)
GI50 [7]: 77.4 µM (inactive)
GI50 [8]: 37 µM (inactive)
GI50 [9]: 42.9 µM (inactive)
GI50 [10]: 24.3 µM (inactive)
GI50 [11]: 47.8 µM (inactive)
GI50 [12]: 33.7 µM (inactive)
GI50 [13]: 29.3 µM (inactive)
GI50 [14]: 29.4 µM (inactive)
GI50 [15]: 38.5 µM (inactive)
GI50 [16]: 44.2 µM (inactive)
GI50 [17]: 33.4 µM (inactive)
GI50 [18]: 41.6 µM (inactive)
